This data set concerns the target T1, β-glucosidase from Agrobacterium (Agrobacterium sp., UniProt P12614).
T1 construct: purchased Megazyme
T1 sequence (P12614 1-459): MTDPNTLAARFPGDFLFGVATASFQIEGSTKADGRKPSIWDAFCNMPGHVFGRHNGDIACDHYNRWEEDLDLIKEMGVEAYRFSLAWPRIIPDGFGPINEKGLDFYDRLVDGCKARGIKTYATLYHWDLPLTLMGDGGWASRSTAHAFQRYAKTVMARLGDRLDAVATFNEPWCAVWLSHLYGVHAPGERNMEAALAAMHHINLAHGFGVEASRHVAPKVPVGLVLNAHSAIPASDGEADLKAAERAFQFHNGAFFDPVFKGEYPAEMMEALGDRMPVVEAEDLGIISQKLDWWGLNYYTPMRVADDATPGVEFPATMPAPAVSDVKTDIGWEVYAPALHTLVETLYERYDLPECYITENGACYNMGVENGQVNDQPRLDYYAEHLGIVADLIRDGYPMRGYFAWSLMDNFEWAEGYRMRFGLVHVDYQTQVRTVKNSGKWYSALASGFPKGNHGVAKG
Description: Oligomerization of bis(indoxyl-glucoside) 46 with β-glucosidase from Agrobacterium. The format is biochemical. The conditions noted are these: precipitate from 300 μM of 46 suspended in H2O. The procedure: Oligomerization of 46 was carried out by treatment with β-glucosidase from Agrobacterium (200 nM) in 10 mM phosphate buffer (pH 7) at 37° C. for 2-4 h (Scheme 9). Precipitation occurred during the reaction. After centrifugation, the precipitate was separated from the supernatant, washed with H2O, and dried to afford a blue solid.
The efficacy of the indigogenic oligomerization was examined under a variety of conditions. As shown in entries 1˜4 in Table 2, the yield of indigoid dye in the supernatant versus precipitate reversed as the concentration of 46 was decreased from 300 to 10 μM, although the total yields were in the range 17-29%. While the reactions in entries 1˜4 were carried out in phosphate buffer containing NaCl (0.05 M), those of entries 5 and 6 (with 300 and 50 μM of 46, respectively) were conducted in NaCl-free phosphate buffer. The use of NaCl-free phosphate buffer facilitated extraction of the indigoid dye in the supernatant for analysis.
The time course of the oligomerization was examined under the reaction conditions listed in entry 5 of Table 2, with 300 μM of 46. Noticeable changes include observation of blue clouding and color deepening at 20 min. Centrifugation enabled isolation of the precipitate. […] The absorption spectrum of the precipitate was examined in DMF/DMSO (9:1) and compared with that of the extracted supernatant (in DMF) and 43 (in DMF) (FIG. 10D). […]

This is an account of results in patent US12502440B2, “Cross-linking compounds and methods of use thereof” (North Carolina State University, priority 2019, dated 2025).

For the compound `O=S(=O)([O-])CCC[N+]1(CCCO)CCN(c2nc(OCCOCCOCCOc3c(Br)cc4[nH]cc(O[C@@H]5O[C@H](CO)[C@@H](O)[C@H](O)[C@H]5O)c4c3Br)nc(OCCOCCOCCOc3c(Br)cc4[nH]cc(O[C@@H]5O[C@H](CO)[C@@H](O)[C@H](O)[C@H]5O)c4c3Br)n2)CC1` [compound 46], the “particle size of precipitate by DLS (number mean)” value is on record as roughly 680 nm.
